According to PMC4508061, “Selectivity Profiling and Biological Activity of Novel β-Carbolines as Potent and Selective DYRK1 Kinase Inhibitors” (PLoS ONE, 2015):

Assays:
Test in all cases: ProQinase radiometric kinase panel
Settings in all cases: mean of 2 exp.
FER = FER (Homo sapiens, UniProt P16591)
CDK9/CycK = CDK9/CycK (Homo sapiens, UniProt P50750)
JNK3 = JNK3 (Homo sapiens, UniProt P53779)
Experimental: Gini coefficients were calculated and the Lorenz curve (Fig 3B) was plotted by applying the Microsoft Excel spreadsheet provided by Graczyk [44].
radiometric protein kinase assays.

HIPK2 = HIPK2 (Homo sapiens, UniProt Q9H2X6)
WNK3 = WNK3 (Homo sapiens, UniProt Q9BYP7)
CDK2/CycA2 = CDK2/CycA2 (Homo sapiens, UniProt P24941)
S6K = S6K (Homo sapiens, UniProt P23443)
FYN = FYN (Homo sapiens, UniProt P06241)
PDGFR-beta = PDGFR-beta (Homo sapiens, UniProt P09619)
EEF2K = EEF2K (Homo sapiens, UniProt O00418)
JAK1 = JAK1 (Homo sapiens, UniProt P23458)
Sequence of JAK1 (P23458 whole entry): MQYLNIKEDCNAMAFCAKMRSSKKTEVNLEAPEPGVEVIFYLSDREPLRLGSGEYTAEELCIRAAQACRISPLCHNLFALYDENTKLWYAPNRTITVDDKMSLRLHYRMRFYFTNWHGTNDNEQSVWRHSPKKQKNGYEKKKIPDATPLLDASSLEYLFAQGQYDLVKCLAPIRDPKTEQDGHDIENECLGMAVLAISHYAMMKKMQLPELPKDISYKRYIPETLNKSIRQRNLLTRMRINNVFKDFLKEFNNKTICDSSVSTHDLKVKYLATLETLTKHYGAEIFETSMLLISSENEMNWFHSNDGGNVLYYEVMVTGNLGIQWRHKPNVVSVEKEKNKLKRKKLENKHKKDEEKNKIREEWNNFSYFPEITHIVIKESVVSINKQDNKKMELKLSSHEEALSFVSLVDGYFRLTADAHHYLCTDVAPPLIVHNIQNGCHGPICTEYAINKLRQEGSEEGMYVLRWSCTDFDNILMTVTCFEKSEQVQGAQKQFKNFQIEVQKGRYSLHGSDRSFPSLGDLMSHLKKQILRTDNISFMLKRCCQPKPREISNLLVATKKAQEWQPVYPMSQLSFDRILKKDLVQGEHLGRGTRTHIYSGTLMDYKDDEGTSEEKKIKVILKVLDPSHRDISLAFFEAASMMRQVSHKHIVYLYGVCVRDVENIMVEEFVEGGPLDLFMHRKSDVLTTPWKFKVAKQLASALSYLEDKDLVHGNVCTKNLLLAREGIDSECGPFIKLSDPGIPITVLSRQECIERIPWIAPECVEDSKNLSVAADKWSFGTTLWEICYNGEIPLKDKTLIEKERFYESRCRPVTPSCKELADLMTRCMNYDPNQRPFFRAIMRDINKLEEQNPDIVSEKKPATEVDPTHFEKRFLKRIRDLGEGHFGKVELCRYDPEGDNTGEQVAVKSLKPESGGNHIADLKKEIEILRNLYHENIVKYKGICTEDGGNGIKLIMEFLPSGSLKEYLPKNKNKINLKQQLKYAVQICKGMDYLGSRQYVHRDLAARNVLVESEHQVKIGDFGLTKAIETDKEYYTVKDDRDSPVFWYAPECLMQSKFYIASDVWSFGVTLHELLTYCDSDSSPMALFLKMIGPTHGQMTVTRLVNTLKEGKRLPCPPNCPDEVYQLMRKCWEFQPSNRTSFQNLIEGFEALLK

ZAP70 = ZAP70 (Homo sapiens, UniProt P43403)
WNK2 = WNK2 (Homo sapiens, UniProt Q9Y3S1)
CK1-gamma3 = CK1-gamma3 (Homo sapiens, UniProt Q9Y6M4)
GRK3 = GRK3 (Homo sapiens, UniProt P35626)
WNK1 = WNK1 (Homo sapiens, UniProt Q9H4A3)
Sequence of WNK1 (Q9H4A3 whole entry): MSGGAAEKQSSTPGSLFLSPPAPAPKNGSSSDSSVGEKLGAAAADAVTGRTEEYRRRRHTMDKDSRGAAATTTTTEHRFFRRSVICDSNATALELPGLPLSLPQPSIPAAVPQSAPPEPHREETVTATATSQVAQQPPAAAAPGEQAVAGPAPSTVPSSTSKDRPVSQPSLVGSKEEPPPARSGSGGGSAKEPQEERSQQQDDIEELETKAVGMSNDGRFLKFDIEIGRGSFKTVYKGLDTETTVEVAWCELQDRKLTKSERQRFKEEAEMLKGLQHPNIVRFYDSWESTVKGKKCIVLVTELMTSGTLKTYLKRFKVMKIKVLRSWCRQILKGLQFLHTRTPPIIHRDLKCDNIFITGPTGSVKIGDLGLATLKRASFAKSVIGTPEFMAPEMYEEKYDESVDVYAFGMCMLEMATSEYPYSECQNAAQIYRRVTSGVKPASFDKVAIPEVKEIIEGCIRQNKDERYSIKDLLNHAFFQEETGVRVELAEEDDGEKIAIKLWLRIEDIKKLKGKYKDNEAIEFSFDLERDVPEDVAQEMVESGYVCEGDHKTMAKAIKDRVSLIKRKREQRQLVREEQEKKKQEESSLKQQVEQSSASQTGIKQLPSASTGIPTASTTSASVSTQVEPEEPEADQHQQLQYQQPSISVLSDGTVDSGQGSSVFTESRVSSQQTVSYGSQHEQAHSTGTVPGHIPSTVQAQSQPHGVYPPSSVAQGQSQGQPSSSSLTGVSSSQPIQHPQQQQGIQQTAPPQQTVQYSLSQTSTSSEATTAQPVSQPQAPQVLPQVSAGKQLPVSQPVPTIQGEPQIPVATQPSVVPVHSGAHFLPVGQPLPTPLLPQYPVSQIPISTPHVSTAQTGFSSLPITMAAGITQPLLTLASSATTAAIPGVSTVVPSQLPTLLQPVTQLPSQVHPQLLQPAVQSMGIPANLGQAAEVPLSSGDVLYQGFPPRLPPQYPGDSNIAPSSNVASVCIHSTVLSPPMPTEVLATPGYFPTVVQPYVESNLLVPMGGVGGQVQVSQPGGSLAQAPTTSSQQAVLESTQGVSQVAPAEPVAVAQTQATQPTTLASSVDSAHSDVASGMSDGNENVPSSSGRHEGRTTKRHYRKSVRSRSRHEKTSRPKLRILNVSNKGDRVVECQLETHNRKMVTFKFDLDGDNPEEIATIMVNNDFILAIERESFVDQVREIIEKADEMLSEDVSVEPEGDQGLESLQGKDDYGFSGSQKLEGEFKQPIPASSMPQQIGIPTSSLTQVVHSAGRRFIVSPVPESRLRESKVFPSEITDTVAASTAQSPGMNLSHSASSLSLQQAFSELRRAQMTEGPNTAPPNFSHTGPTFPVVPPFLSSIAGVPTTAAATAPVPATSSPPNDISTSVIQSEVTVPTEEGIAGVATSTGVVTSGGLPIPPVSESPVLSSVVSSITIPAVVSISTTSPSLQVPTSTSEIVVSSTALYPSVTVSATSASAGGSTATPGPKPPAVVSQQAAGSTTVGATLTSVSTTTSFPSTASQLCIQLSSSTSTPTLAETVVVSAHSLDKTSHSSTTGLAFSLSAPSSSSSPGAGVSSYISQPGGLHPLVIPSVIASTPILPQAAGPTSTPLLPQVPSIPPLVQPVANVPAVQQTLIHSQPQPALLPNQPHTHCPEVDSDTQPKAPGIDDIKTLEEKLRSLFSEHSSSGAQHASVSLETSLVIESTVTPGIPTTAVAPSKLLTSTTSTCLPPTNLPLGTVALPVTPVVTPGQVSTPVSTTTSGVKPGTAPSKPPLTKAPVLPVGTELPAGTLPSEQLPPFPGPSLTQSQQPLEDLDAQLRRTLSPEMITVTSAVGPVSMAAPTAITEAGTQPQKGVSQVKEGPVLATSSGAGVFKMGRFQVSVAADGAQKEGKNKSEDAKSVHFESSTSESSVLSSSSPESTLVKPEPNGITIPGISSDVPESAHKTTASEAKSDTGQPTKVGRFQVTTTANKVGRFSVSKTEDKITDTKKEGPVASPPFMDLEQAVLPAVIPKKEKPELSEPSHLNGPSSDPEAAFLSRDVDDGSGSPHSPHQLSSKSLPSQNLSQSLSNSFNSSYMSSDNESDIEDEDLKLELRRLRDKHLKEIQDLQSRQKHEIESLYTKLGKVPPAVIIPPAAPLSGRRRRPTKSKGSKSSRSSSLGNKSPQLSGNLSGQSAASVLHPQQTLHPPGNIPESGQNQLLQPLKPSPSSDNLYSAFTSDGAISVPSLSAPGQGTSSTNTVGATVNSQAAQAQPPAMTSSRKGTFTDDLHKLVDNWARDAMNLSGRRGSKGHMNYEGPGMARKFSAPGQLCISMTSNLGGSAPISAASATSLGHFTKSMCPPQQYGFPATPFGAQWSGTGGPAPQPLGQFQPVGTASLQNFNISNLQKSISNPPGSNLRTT

ERBB2 = ERBB2 (Homo sapiens, UniProt P04626)
PKC-eta = PKC-eta (Homo sapiens, UniProt P24723)
B-RAF = B-RAF (Homo sapiens, UniProt P15056)
MYLK = MYLK (Homo sapiens, UniProt Q15746)
CSF1-R = CSF1-R (Homo sapiens, UniProt P07333)
TRK-B = TRK-B (Homo sapiens, UniProt Q16620)
GSG2 (Haspin) = GSG2 (Haspin) (Homo sapiens, UniProt Q8TF76)
TGFB-R1 = TGFB-R1 (Homo sapiens, UniProt P36897)
MERTK = MERTK (Homo sapiens, UniProt Q12866)
CDK1/CycE1 = CDK1/CycE1 (Homo sapiens, UniProt P06493)
Sequence of CDK1/CycE1 (P06493 whole entry): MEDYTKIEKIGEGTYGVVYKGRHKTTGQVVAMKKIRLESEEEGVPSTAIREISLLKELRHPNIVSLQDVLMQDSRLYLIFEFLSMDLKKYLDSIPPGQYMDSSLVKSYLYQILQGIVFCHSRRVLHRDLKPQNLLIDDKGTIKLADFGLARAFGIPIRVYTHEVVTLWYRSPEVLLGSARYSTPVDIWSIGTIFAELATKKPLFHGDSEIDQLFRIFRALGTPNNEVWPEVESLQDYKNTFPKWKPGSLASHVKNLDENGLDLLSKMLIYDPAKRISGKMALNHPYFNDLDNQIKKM
Sequence of CDK1/CycE1 (P24864 whole entry partner): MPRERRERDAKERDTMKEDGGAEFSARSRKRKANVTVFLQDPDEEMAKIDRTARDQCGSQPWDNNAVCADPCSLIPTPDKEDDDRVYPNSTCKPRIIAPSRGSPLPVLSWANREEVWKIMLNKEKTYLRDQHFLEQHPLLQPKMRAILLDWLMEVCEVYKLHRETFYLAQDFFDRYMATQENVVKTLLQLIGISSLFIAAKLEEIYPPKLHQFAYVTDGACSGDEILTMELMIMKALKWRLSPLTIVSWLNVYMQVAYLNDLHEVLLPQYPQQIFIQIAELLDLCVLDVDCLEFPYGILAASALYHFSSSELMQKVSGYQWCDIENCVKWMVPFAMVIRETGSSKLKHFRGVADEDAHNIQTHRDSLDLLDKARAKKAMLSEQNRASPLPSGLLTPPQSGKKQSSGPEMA

PKC-nu = PKC-nu (Homo sapiens, UniProt O94806)
ASK1 = ASK1 (Homo sapiens, UniProt Q99683)
DCAMKL2 = DCAMKL2 (Homo sapiens, UniProt Q8N568)
CDK1/CycB1 = CDK1/CycB1 (Homo sapiens, UniProt P06493)
Sequence of CDK1/CycB1 (P06493 whole entry): as the sequence (P06493 whole entry) above
Sequence of CDK1/CycB1 (P14635 whole entry partner): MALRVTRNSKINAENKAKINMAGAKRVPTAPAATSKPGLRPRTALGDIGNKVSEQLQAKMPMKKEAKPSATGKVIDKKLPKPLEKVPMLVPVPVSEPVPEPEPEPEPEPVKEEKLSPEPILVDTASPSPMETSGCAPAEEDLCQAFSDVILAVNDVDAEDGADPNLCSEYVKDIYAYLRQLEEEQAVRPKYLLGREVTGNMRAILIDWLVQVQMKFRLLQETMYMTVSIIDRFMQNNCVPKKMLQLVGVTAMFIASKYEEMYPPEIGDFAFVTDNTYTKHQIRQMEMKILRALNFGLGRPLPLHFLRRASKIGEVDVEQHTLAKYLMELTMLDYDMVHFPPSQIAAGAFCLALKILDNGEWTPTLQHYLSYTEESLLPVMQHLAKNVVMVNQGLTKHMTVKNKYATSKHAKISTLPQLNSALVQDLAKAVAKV

VEGF-R3 = VEGF-R3 (Homo sapiens, UniProt P35916)
CK1-gamma2 = CK1-gamma2 (Homo sapiens, UniProt P78368)
PYK2 = PYK2 (Homo sapiens, UniProt Q14289)
INS-R = INS-R (Homo sapiens, UniProt P06213)
STK25 = STK25 (Homo sapiens, UniProt O00506)
SGK2 = SGK2 (Homo sapiens, UniProt Q9HBY8)
p38-delta = p38-delta (Homo sapiens, UniProt O15264)
SNARK = SNARK (Homo sapiens, UniProt Q9H093)
ROCK2 = ROCK2 (Homo sapiens, UniProt O75116)

residual activity at 1 µM, Mean (FER): 93 % of control
residual activity at 1 µM, Mean (CDK9/CycK): 52 % of control
residual activity at 1 µM, Mean (JNK3): 82 % of control
residual activity at 1 µM, Mean (HIPK2): 87 % of control
residual activity at 1 µM, Mean (WNK3): 94 % of control
residual activity at 1 µM, Mean (CDK2/CycA2): 88 % of control
residual activity at 1 µM, Mean (S6K): 85 % of control
residual activity at 1 µM, Mean (FYN): 92 % of control
residual activity at 1 µM, Mean (PDGFR-beta): 88 % of control
residual activity at 1 µM, Mean (EEF2K): 98 % of control
residual activity at 1 µM, Mean (JAK1): 93 % of control
residual activity at 1 µM, Mean (ZAP70): 97 % of control
residual activity at 1 µM, Mean (WNK2): 98 % of control
residual activity at 1 µM, Mean (CK1-gamma3): 93 % of control
residual activity at 1 µM, Mean (GRK3): 92 % of control
residual activity at 1 µM, Mean (WNK1): 98 % of control
residual activity at 1 µM, Mean (ERBB2): 102 % of control
residual activity at 1 µM, Mean (PKC-eta): 79 % of control
residual activity at 1 µM, Mean (B-RAF): 105 % of control
residual activity at 1 µM, Mean (MYLK): 92 % of control
residual activity at 1 µM, Mean (CSF1-R): 106 % of control
residual activity at 1 µM, Mean (TRK-B): 72 % of control
residual activity at 1 µM, Mean (GSG2 (Haspin)): 5 % of control
residual activity at 1 µM, Mean (TGFB-R1): 104 % of control
residual activity at 1 µM, Mean (MERTK): 91 % of control
residual activity at 1 µM, Mean (CDK1/CycE1): 93 % of control
residual activity at 1 µM, Mean (PKC-nu): 87 % of control
residual activity at 1 µM, Mean (ASK1): 104 % of control
residual activity at 1 µM, Mean (DCAMKL2): 97 % of control
residual activity at 1 µM, Mean (CDK1/CycB1): 81 % of control
residual activity at 1 µM, Mean (VEGF-R3): 93 % of control
residual activity at 1 µM, Mean (CK1-gamma2): 82 % of control
residual activity at 1 µM, Mean (PYK2): 110 % of control
residual activity at 1 µM, Mean (INS-R): 92 % of control
residual activity at 1 µM, Mean (STK25): 96 % of control
residual activity at 1 µM, Mean (SGK2): 99 % of control
residual activity at 1 µM, Mean (p38-delta): 89 % of control
residual activity at 1 µM, Mean (SNARK): 95 % of control
residual activity at 1 µM, Mean (ROCK2): 79 % of control
Structure (SMILES): COc1ccc2c3ccnc(Cl)c3n(CC#N)c2c1 [AnnH75]
